Measurements reported in patent US20160235778A1, “COMPOSITIONS CONTAINING PUFA, URIDINE AND CHOLINE AND METHODS OF USE THEREOF” (MASSACHUSETTS INSTITUTE OF TECHNOLOGY, priority 2014, published 2016).

Legend:
brain phospholipids = assay: Brain phospholipid levels in gerbils given UMP diet and/or PUFA by gavage; type: in vivo, gerbil; parameters: PC / PE / PS / PI: unit not given here
Description: Control standard diet (Table 4) consisted of Teklad Global 16% protein rodent diet (Harlan Teklad, Madison, Wis.), which contained 0.1% choline chloride (CC), corresponding to a daily dose of 50 mg/kg/day. UMP was provided as 0.5% UMP·2Na^+ weight/weight, added to the control diet, also prepared by Harlan Teklad, corresponding to 240 mg/kg/day UMP. DHA was administered as 300 mg/kg/day in 200 microliter (mcL)/day 5% Arabic Gum solution, while groups not receiving DHA were administered vehicle (5% Arabic Gum) alone. DHA was provided by Nu-Chek Prep (Elysian, MN) and UMP by Numico (Wagenigen, NL).
Gerbils were anesthetized with ketamine and xylazine (80 and 10 mg/kg bwt, i.p.) and sacrificed by immersing the head into liquid nitrogen for 2 min, followed by decapitation. Brains were immediately and quickly (30 seconds) removed using a bone rongeur and stored at −80° C.
Frozen brain hemispheres were weighed and homogenized in 100 volumes of ice-cold deionized water using a tissue degrader (Polytron PT 10-35, Kinematica AG, Switzerland), then analyzed as described in Example 1.
Protein in whole brain homogenate sample was measured for using bicinchoninic acid reagent (Perkin Elmer, Norwalk, Conn., USA). DNA was measured by measuring 460 nm emission of samples on a fluorometer in the presence of bisbenzimidizole, a fluorescent dye known as Hoechst H 33258 (American Hoechst Corporation), which has an excitation maximum at 356 nm and an emission maximum of 458 when bound to DNA.
Male gerbils weighing 80-100 g were divided into 4 groups of 8 gerbils and administered the supplements depicted in Table 1:
Adult gerbils were administered control standard diet (Table 4) with our without 0.5% UMP and/or 300 mg/kg/day DHA, EPA, or AA. Groups not receiving DHA were administered vehicle (5% Arabic Gum) alone.

brain CDP-choline = assay: Brain CDP-choline and CDP-ethanolamine levels (HPLC); type: in vivo; details: gerbil
Description: FIG. 5A-B. Effects of DHA on brain CDP-choline levels (FIG. 5A) and CDP-ethanolamine levels (FIG. 5B). Groups of 8 gerbils received either a control or a UMP-containing diet, and, by gavage, DHA (in a vehicle of 5% gum Arabic solution) or 5% gum Arabic solution alone for 28 days. On the 29th day brains were harvested and assayed for CDP-choline. Data are presented as means±SEM. Statistical analysis was performed using one- or two-way ANOVA followed by Tukey test. a: P<0.05 when compared with the values for control diet plus vehicle group; b: P<0.05 when compared with values for UMP diet plus vehicle group.
Aliquots (2 ml) of the upper (aqueous) phase were dried under a vacuum, reconstituted, and injected into an HPLC. The dried samples were reconstituted in 100-200 μl water and were analyzed by HPLC on an anion exchange column (Alltech Hypersil APS-2, […], 250×4.6 mm). CDP-choline was eluted with a linear gradient of buffers A (H3PO4, 1.75 mM, pH 2.9) and B (NaH2PO2, 500 mM, pH 4.5) from 0 to 100% B over period of 30 min. With this system, CDP-choline was resolved from closely co-eluting substances such as UMP in an isocratic system over a period of 40 min. The retention time for CDP-choline was 9.5 min. The column was washed with buffer B at the end of each experiment and every several days to remove retained nucleotides. Individual nucleotide peaks were detected by UV absorption at 280 nm and were identified by comparison with the positions of authentic standards, as well as by the addition of nucleotide standards to samples.

[1] = system: hippocampal dendritic spines; assay: Hippocampal dendritic spine numbers in pups of treated pregnant and nursing mothers; type: in vivo; details: rat pups, mothers treated 10 days before parturition and 20 days while nursing
Description: In another study, pregnant rats were allowed to consume ad libitum, for 10 days before parturition and 20 days while nursing, either a choline-containing control diet or this diet supplemented with uridine as UMP; half of each group also received DHA or its diluent daily, by gavage. Pups were then sacrificed and brain slices were examined to determine numbers of hippocampal dendritic spines.

Rat hippocampal cells = assay: 14C-choline incorporation into PC in cultured hippocampal neurons; type: cell-based; details: DHA+choline, 14C-choline 2 h, FIG. 10
Description: Rat hippocampal cells were cultured for 3 weeks in Neutrobasal plus B27 medium, to reach full maturation. On the day of the experiment, cells were incubated with DMEM+choline, with or without added DHA. ^14C-choline was added, cells were incubated for an additional 2 h, and newly-formed ^14C-labeled PC was extracted and measured as described in Example 1.

[2] = gerbil brain, 3 weeks, 0.5% UMP and/or 300 mg/kg/day PUFA, Table 6
[3] = gerbil brain, 4 weeks, normalized to DNA levels, mean +/- SEM
[4] = gerbil brain, 4 weeks, normalized to protein levels, mean +/- SEM
[5] = gerbil, Table 5A study, vs control

## CCC=CCC=CCC=CCC=CCC=CCC=CCCC(=O)O [DHA, 4,7,10,13,16,19-docosahexaenoic acid]
Brain phospholipids; [2]
  PC: 133 ± 6
  PE: 77 ± 2
  PI: 18 ± 2
  PS: 34 ± 3
  SM: 24 ± 2
  Total PL: 344 ± 16
Brain phospholipids; [3]
  PC: 366 ± 13
  PE: 196 ± 18
  PI: 84 ± 13
  PS: 98 ± 7
  SM: 126 ± 8
  Total PL: 909 ± 77
Brain phospholipids; [4]
  PC: 185 ± 12
  PE: 78 ± 5
  PI: 32 ± 2
  PS: 39 ± 3
  SM: 56 ± 3
  Total PL: 392 ± 20
Brain phospholipids; gerbil brain, 4 weeks, vs control group
  increase in levels of total phospholipids: 12%
Brain phospholipids; gerbil brain, Table 5 part A
  PtdCho: 185 ± 12 nmol/mg prt
  PtdEtn: 78 ± 5 nmol/mg prt
  PtdIns: 32 ± 2 nmol/mg prt
  PtdSer: 39 ± 3 nmol/mg prt
  SM: 56 ± 3 nmol/mg prt
  Total PL: 392 ± 20 nmol/mg prt
Brain phospholipids; gerbil, 3 weeks
  brain phospholipid levels, in words: increased phospholipid levels
Brain phospholipids; [5]
  increase in brain level of PC: 22%
  increase in brain level of PE: 20%
  increase in brain level of PI: 52%
  increase in brain level of sphingomyelin: 24%
Brain CDP-choline; 28 days, compared with UMP-containing diet and DHA's vehicle
  reduction of brain CDP-choline levels in UMP-treated gerbils: 21%
Brain CDP-choline; 28 days, compared with control diet and DHA's vehicle
  reduction of brain CDP-choline levels: 26%
Brain CDP-choline; FIG. 5A
  brain CDP-choline levels, in words: decreased
Brain CDP-choline; FIG. 5B
  brain CDP-ethanolamine levels, in words: decreased
[1]
  Increase over control (%): 32%
  Number of spines: 70
Rat hippocampal cells
  increase in synthesis of phospholipids relative to choline alone (control): more than 2 fold
